From patent US4558049A, “Antipsycotic benzoxazines” (Farmitalia Carlo Erba S.p.A., priority 1982, dated 1985)
Where two headings read alike, the source gives them in different places.

Assays:
[1] = test system: rats with 6-OHDA induced unilateral lesions of the dopaminergic nigrostriatal pathway; experiment: Turning-behaviour (antagonism to rotational behaviour by dopaminergic agents in rats with 6-OHDA induced unilateral lesions); assay type: in vivo; details: rat, p.o.
[2] = Reduction of body temperature in mice (Irwin technique); details: p.o.
[3] = test system: catalepsy in rats; experiment: Catalepsy induction in rats; assay type: in vivo; details: rat, p.o.
[4] = LD50 / acute toxicity in mice; details: mouse, in vivo, po, approximate LD50
[5] = test system: conditioned Avoidance Response in the rat; experiment: C.A.R. test (interference with conditioned Avoidance Response in the rat); assay type: in vivo; details: p.o.
[6] = test system: neuromuscular coordination in the rat; experiment: Rotarod test (neuromuscular coordination in the rat); assay type: in vivo; details: p.o.
[7] = test system: apomorphine-induced climbing behaviour in mice; experiment: Apomorphine antagonism in mice (apomorphine-induced climbing behaviour, Protais et al.); assay type: in vivo; details: Mus musculus, po
[8] = test system: spontaneous activity in mice; experiment: Reduction of spontaneous activity in mice (Irwin technique); details: p.o.
[9] = mouse, in vivo, po
[10] = test system: spontaneous activity in mice; details: mouse, in vivo, po

In the case of `O=C1Nc2ccc(Br)cc2C2(CCN(CCCC(=O)c3ccc(F)cc3)CC2)O1` [Example 1, 1'-[3-(4-Fluorobenzoyl)propyl]spiro-(3,1-benzoxazine-6-bromo-4(2H)4'-piperidin)-2-one], the “Min. active dose in Turning-behaviour” value [1] is reported as > 20 mg/kg p.o, the “Reduction of body temperature in mice (min. active dose)” value (shortened to “Reduction of body temperature in mice”) [2] is reported as 100 mg/kg p.o and the “Min. active dose in Catalepsy induction” value [3] is reported as > 200 mg/kg p.o. For the same compound, the LD50 [4] was > 800 mg/kg, the “Min. active dose in C.A.R. test” value [5] was 25 mg/kg p.o and the “Min. active dose in Rotarod test” value [6] was > 50 mg/kg p.o. For the same compound, the ED50 [7] was 1.7 mg/kg and the “Reduction of spontaneous activity in mice (min. active dose)” value (“Reduction of spontaneous activity” for short) [8] was 12.5 mg/kg p.o.
With `O=C1Nc2ccc([N+](=O)[O-])cc2C2(CCN(CCCC(=O)c3ccc(F)cc3)CC2)O1` [Example 3, 1'-[3-(4-fluorobenzoyl)propyl]spiro-(3,1-benzoxazine-6-nitro-4(2H)4'-piperidin)-2-one] the “Min. active dose in Turning-behaviour” value [1] was > 15 mg/kg p.o, the “Reduction of body temperature in mice” value [2] was 110 mg/kg p.o and the “Min. active dose in Catalepsy induction” value [3] was 200 mg/kg p.o. For the same compound, the LD50 [4] was > 800 mg/kg, the “Min. active dose in C.A.R. test” value [5] was 20 mg/kg p.o and the “Min. active dose in Rotarod test” value [6] was 50 mg/kg p.o. For the same compound, the ED50 [7] was 2.7 mg/kg and the “Reduction of spontaneous activity” value [8] was 15 mg/kg p.o.
With `O=C(CCCN1CCC(O)(c2ccc(Cl)cc2)CC1)c1ccc(F)cc1` [Haloperidol, haloperidol, reference compound] the “Min. active dose in Turning-behaviour” value [1] was 0.5 mg/kg p.o, the “Reduction of body temperature in mice” value [9] was 3.12 mg/kg p.o and the “Min. active dose in Catalepsy induction” value [3] was 0.5 mg/kg p.o. For the same compound, the LD50 [4] was ~75 mg/kg, the “Min. active dose in C.A.R. test” value [5] was 0.5 mg/kg p.o and the “Min. active dose in Rotarod test” value [6] was 0.5 mg/kg p.o. The ED50 [7] was 0.2 mg/kg and the “Reduction of spontaneous activity” value [10] was 0.78 mg/kg p.o.
